Experimental data taken from ChEMBL document CHEMBL1151933, “Identification of a disruptor of the MDM2-p53 protein-protein interaction facilitated by high-throughput in silico docking” (Bioorg Med Chem Lett, 2009).

Columns and labels:
[1] = Inhibition of GST-tagged MDM2/His6-tagged p53 interaction at 100 uM by ELISA
[2] = Inhibition of GST-tagged MDM2 (1-150) / full-length His6-tagged p53 interaction expressed in Escherichia coli by alphascreen assay
[3] = Inhibition of GST-tagged MDM2/His6-tagged p53 interaction by ELISA

**Q.** For `c1ccc(/C(=N/Nc2nc3ccccc3s2)c2ccccn2)cc1.c1ccc(/C(=N\Nc2nc3ccccc3s2)c2ccccn2)cc1` (mixture of isomers; form 2) [listing 1 of 2 here], which inhibition [1] is on record?
**A.** > 50%

**Q.** With `c1ccc(/C(=N/Nc2nc3ccccc3s2)c2ccccn2)cc1.c1ccc(/C(=N\Nc2nc3ccccc3s2)c2ccccn2)cc1` (mixture of isomers; form 1) as the compound, how does the IC50 [2] read?
**A.** 13 µM

**Q.** Which IC50 [2] does the source give for `COc1ccc(C2=N[C@@H](c3ccc(Cl)cc3)[C@@H](c3ccc(Cl)cc3)N2C(=O)N2CCNC(=O)C2)c(OC(C)C)c1` [NUTLIN-3] here?
**A.** 0.25 µM

**Q.** With `c1ccc(/C(=N/Nc2nc3ccccc3s2)c2ccccn2)cc1.c1ccc(/C(=N\Nc2nc3ccccc3s2)c2ccccn2)cc1` (mixture of isomers; form 2) [listing 2 of 2 here] as the compound, how does the IC50 [3] read?
**A.** 20 µM

**Q.** And the IC50 [2]?
**A.** 25 µM
